Test results published in the NIST ThermoML archive (doi:10.1016/j.fluid.2013.03.008).

Conditions: Liquid, Closed cell (Static) method

CCCCCCCCCCCCCCCC(=O)OCC [ethyl hexadecanoate]
Conditions	vapor or sublimation pressure [kPa]
412.63 K	0.1
419.36 K	0.15
425.07 K	0.2
433.31 K	0.3
438.71 K	0.4
442.68 K	0.5
448.35 K	0.65
452.99 K	0.8
457.98 K	1
462.64 K	1.2
468.07 K	1.5

CCCCCCCCCCCCCC(=O)OCC [ethyl tetradecanoate]
Conditions	vapor or sublimation pressure [kPa]
392.17 K	0.1
398.52 K	0.15
404.27 K	0.2
410.95 K	0.3
416.1 K	0.4
419.65 K	0.5
425.69 K	0.65
430.55 K	0.8
434.91 K	1
439.1 K	1.2
443.82 K	1.5
